One series concerns the target T1, human HRH4 (Homo sapiens, UniProt Q9H3N8).
T1 construct: purchased PerkinElmer
The series is described as follows: Histamine H4 receptor binding test ([3H]-Histamine radioligand binding). The settings on record: membrane fraction of CHO-K1 expressing human HRH4; [3H]-Histamine 15 nM; Ki by Cheng-Prusoff. As for the experimental part:
Membrane fraction of CHO-K1 stably expressing human HRH4 was purchased from PerkinElmer. Radioligand binding assay was performed in 96 well polypropylene assay plates in a total assay volume of 150 μL. Membrane suspension (15 μg of protein) was mixed with [3H]-Histamine (PerkinElmer) at 15 nM and compounds at various concentration in 50 mM Tris-HCl pH7.4, 5 mM EDTA buffer. Assays were incubated for 60 min at room temperature, then the reactions were terminated by rapid filtration over 96-well GF/B filter plates (PerkinElmer) presoaked in 0.5% polyethyleneimine. Unbound radioactivity was eliminated by six times of wash with 350 μL of ice-cold 50 mM Tris pH7.4 buffer. When the filter plates were dried, Microscint-MS liquid scintillation fluid (PerkinElmer) was added to each well and retained radioactivity plates were counted in a Topcount liquid scintillation counter (PerkinElmer). Specific binding was calculated by subtracting non-specific binding determined in the presence of 100 μM unlabeled histamine from total count.
The resulting data were analyzed for IC50 using the non-linear regression on XLfit.
Affinity values (Ki) were then determined by Cheng-Prusoff equation.

A further series deals with CYP3A4 (Homo sapiens, UniProt P08684). Kind of series: CYP3A4 fluorescent MBI test. Format: in vitro ADME. Also noted: host or cells: Escherichia coli. Conditions: prereaction 0 or 30 minutes; substrate 7-BFC; CYP3A4 expressed in Escherichia coli. As for the experimental part: The CYP3A4 fluorescent MBI test is a test of investigating enhancement of CYP3A4 inhibition of a compound by a metabolism reaction, and the test was performed using, as CYP3A4 enzyme expressed in Escherichia coli and employing, as an index, a reaction in which 7-benzyloxytrifluoromethylchmarin (BFC) is debenzylated by the CYP3A4 enzyme to produce a metabolite, 7-hydroxytrifluoromethylchmarin (HFC) emitting fluorescent light.
Sequence of CYP3A4 (P08684 whole entry): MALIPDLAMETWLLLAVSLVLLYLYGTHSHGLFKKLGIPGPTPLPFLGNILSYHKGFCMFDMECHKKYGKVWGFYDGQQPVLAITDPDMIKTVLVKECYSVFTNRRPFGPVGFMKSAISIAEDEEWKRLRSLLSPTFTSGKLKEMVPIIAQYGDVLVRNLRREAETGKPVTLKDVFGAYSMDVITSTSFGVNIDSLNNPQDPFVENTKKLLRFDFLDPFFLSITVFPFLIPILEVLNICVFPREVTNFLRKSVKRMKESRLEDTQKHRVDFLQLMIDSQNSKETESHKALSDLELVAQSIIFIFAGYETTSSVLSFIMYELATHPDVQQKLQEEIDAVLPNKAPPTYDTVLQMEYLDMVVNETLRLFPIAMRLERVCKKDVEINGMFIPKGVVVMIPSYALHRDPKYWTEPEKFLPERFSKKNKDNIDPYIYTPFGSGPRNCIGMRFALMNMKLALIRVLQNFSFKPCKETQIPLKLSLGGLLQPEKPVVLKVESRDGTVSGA
The reaction conditions were as follows: substrate, 5.6 μmol/L 7-BFC; prereaction time, 0 or 30 minutes; reaction time, 15 minutes; reaction temperature, 25° C. […]
An enzyme in a K-Pi buffer (pH 7.4) and a test drug solution as a pre-reaction solution were added to a 96-well plate at the composition of the pre-reaction, a part of it was transferred to another 96-well plate so that it was 1/10 diluted by a substrate in a K-Pi buffer, NADPH as a co-factor was added to initiate a reaction as an index (without preincubation) and, after a predetermined time of a reaction, acetonitrile/0.5 mol/L Tris(trishydroxyaminomethane)=4/1 was added to stop the reaction. […] For the plate on which each index reaction had been performed, a fluorescent value of 7-HFC which is a metabolite was measured with a fluorescent plate reader. […]

The nature of series [1]: Metabolism stability test (human). It counts as in vitro ADME. The settings on record: test compound concentration 0.5 μmol/L, 30 minutes, 37° C. As for the experimental part:
Using commercially available pooled human hepatic microsomes, prepared in accordance with Japanese journal of pharmacology, 33 (1), p. 41-56, February 1983, a test compound was reacted for a constant time, a remaining rate was calculated by comparing a reacted sample and an unreacted sample, thereby, a degree of metabolism in liver was assessed.
A reaction was performed (oxidative reaction) at 37° C. for 0 minute or 30 minutes in the presence of 1 mmol/L NADPH in 0.2 mL of a buffer (50 mmol/L tris-HCl pH 7.4, 150 mmol/L potassium chloride, 10 mmol/L magnesium chloride) containing 0.5 mg protein/mL of human liver microsomes. After the reaction, 50 μL of the reaction solution was added to 100 μL of a methanol/acetonitrile=1/1 (v/v), mixed and centrifuged at 3000 rpm for 15 minutes. The test compound in the supernatant was quantified by LC/MS/MS, and a remaining amount of the test compound after the reaction was calculated, letting a compound amount at 0 minute reaction time to be 100%. Hydrolysis reaction was performed in the absence of NADPH and glucuronidation reaction was in the presence of 5 mM UDP-glucuronic acid in place of NADPH, followed by similar operations.

The nature of series [2]: Metabolism stability test (rat). The settings on record: test compound concentration 0.5 μmol/L, 30 minutes, 37° C. Format: in vitro ADME.

Each structure is given as a SMILES string.

T1 sequence (Q9H3N8 whole entry): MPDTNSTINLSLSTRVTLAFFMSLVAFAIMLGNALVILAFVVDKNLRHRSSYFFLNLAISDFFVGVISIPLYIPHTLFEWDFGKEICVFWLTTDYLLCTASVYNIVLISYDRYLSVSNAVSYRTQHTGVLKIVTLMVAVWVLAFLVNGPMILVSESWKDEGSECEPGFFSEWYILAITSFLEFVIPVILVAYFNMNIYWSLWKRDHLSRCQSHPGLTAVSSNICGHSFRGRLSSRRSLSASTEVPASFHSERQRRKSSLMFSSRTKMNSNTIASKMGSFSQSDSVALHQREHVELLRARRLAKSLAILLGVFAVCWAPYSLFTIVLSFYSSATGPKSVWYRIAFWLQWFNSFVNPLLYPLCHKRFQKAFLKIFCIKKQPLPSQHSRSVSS

For `CNC1CCN(C(=O)c2cc3c([nH]2)CCCC3)C1` (stereo not shown) [Compound I-003], the Ki (commonly the equilibrium dissociation constant of an inhibitor or competing ligand from its target) at human HRH4 is 680 nM.
Take `O=C(c1cc2c([nH]1)CCCC2)N1CCNCC1` [Compound I-005]: the Ki on human HRH4 amounted to 250 nM. Against the preceding compound, the Ki is about 2.7-fold lower.
Same read-out and setting: next, `O=C(c1cc2c([nH]1)CCCC2)N1CC2CCCNC2C1` (stereo not shown) [Compound I-006]: 230 nM; `O=C(c1nc2c([nH]1)CCCC2)N1CCNCC1` [Compound I-008]: 420 nM; `CC1CCCc2[nH]c(C(=O)N3CCN(C)CC3)cc21` (stereo not shown) [Compound I-009]: 150 nM.
Regarding `CN1CCN(C(=O)c2cc3c([nH]2)CCC3O)CC1` (stereo not shown) [Compound I-010], the “CYP3A4 MBI: difference between IC50 values” on CYP3A4 is reported as “(−) (when the difference is 3 μM or less, this was defined as (−))”.
For `CN1CCN(C(=O)c2cc3c([nH]2)C(O)CC3)CC1` (stereo not shown) [Compound I-012], the affinity at human HRH4, expressed as Ki, was 680 nM. The values for the remaining rate in series [1] and in series [2] were 94% and 92%, respectively.
At human HRH4, `CN1CCN(C(=O)c2cc3c([nH]2)CCCCC3)CC1` [Compound I-013] displayed a Ki of 300 nM.
Still for that read-out and setting: next, `CC1CCc2[nH]c(C(=O)N3CCN(C)CC3)cc2C1` (stereo not shown) [Compound I-015]: 86 nM.
Still for that read-out and setting: in the case of `CN1CCN(C(=O)c2cc3c([nH]2)CCC(=O)C3)CC1` [Compound I-016] it was 370 nM; in that of `CC1CCc2cc(C(=O)N3CCN(C)CC3)[nH]c2C1` (stereo not shown) [Compound I-017], 570 nM.
`Cc1ccc(S(=O)(=O)OC2CCc3[nH]c(C(=O)N4CCN(C)CC4)cc3C2)cc1` (stereo not shown) [Compound I-019]: affinity on human HRH4 was put at a Ki of 200 nM. Compared with the last compound, the Ki is about 2.9-fold lower.
Compound `CN1CCN(C(=O)c2cc3c([nH]2)CCC(Cl)C3)CC1` (stereo not shown) [Compound I-020] showed a Ki on human HRH4 of 22 nM.
Turning to `CN1CCN(C(=O)c2cc3c([nH]2)CCC=C3)CC1` [Compound I-021], the Ki on human HRH4 is 120 nM.
As for `CN1CCN(C(=O)c2cc3c([nH]2)CCC(C)(C)C3)CC1` [Compound I-022], the Ki at human HRH4 came out at 70 nM.
As for `COC1CCc2[nH]c(C(=O)N3CCN(C)CC3)cc2C1` (stereo not shown) [Compound I-023], the Ki at human HRH4 stood at 990 nM.
At human HRH4, `CN1CCN(C(=O)c2cc3c([nH]2)C(=O)CCC3)CC1` [Compound I-024] gave a Ki of 710 nM.
`CC1CCCc2cc(C(=O)N3CCN(C)CC3)[nH]c21` (stereo not shown) [Compound I-026] had a Ki on human HRH4 of 100 nM.
As for `CN1CCN(C(=O)c2cc3c([nH]2)CCC(c2ccccc2)=C3)CC1` [Compound I-027], the Ki at human HRH4 was found to be 760 nM.
In turn, `C#CC1=Cc2cc(C(=O)N3CCN(C)CC3)[nH]c2CC1` [Compound I-033] gave an inhibition constant (Ki) at human HRH4 of 320 nM.
In turn, `CN1CCN(C(=O)c2cc3c([nH]2)C(O)CCC3)CC1` (stereo not shown) [Compound I-036] gave an inhibition constant (Ki) at human HRH4 of 88 nM.
The compound `CN1CCN(C(=O)c2cc3c([nH]2)C(C)(O)CCC3)CC1` (stereo not shown) [Compound I-040] displayed a Ki on human HRH4 of 180 nM. This Ki is about 2-fold higher than that of the compound before.
For `CCC1(O)CCCc2cc(C(=O)N3CCN(C)CC3)[nH]c21` (stereo not shown) [Compound I-041], the affinity on human HRH4 corresponds to a Ki of 590 nM. Compared with the last compound, the Ki is about 3.3-fold higher.
Consider `CN1CCN(C(=O)c2cc3c([nH]2)CCC(C(F)(F)F)C3)CC1` (stereo not shown) [Compound I-045], for which the Ki at human HRH4 worked out at 910 nM.
`CN1CCN(C(=O)c2cc3c([nH]2)[C@H]2CC[C@@H]3C2)CC1` [Compound I-046]: the Ki at human HRH4 was 290 nM.
Compound `CN1CCN(C(=O)c2cc3c([nH]2)CCC(Cl)(Cl)C3)CC1` [Compound I-047] came in with a Ki at human HRH4 of 14 nM.
Regarding `CN1CCN(C(=O)c2cc3c([nH]2)CCCC3)CC1` [Compound I-048], the affinity at human HRH4 corresponds to a Ki of 110 nM.
Compound `CN1CCN(C(=O)c2nc3c([nH]2)CCCC3)CC1` [Compound I-049] registered a Ki at human HRH4 of 150 nM.
With `CN1CCN(C(=O)c2cc3c([nH]2)CCCC3O)CC1` (stereo not shown) [Compound I-051], the affinity on human HRH4 corresponds to a Ki of 250 nM.
For the compound `CN1CCN(C(=O)c2cc3c([nH]2)CCOC3)CC1` [Compound I-052], on human HRH4, the Ki amounted to 380 nM.
`CN1CCN(C(=O)c2cc3c([nH]2)CCC(F)C3O)CC1` (stereo not shown) [Compound I-053] returned a Ki at human HRH4 of 140 nM.
On the same count and under the same terms, in the case of `CN1CCN(C(=O)c2cc3c([nH]2)CCC(F)(F)C3O)CC1` (stereo not shown) [Compound I-054] it was 230 nM.
With `O=C(c1cc2c([nH]1)CCC(Cl)(Cl)C2)N1CCNCC1` [Compound I-055], the Ki at human HRH4 turned out to be 23 nM.
In the case of `O=C(c1cc2c([nH]1)CCC(F)(F)C2)N1CCNCC1` [Compound I-056], on human HRH4, the Ki was 130 nM. Compared with the last compound, the Ki is about 5.7-fold higher.
Consider `CN1CCN(C(=O)c2cc3c([nH]2)C(C)(O)CC3)CC1` (stereo not shown) [Compound I-057], for which the Ki at human HRH4 was 440 nM.
As for `CC(=O)n1c(C(=O)N2CCN(C)CC2)cc2c1CCCC2` [Compound I-059], on human HRH4, the affinity corresponds to a Ki of 270 nM.
For `CC(C)C(=O)n1c(C(=O)N2CCN(C)CC2)cc2c1CCCC2` [Compound I-061], the Ki on human HRH4 is 210 nM.
For `O=C(c1cc2c([nH]1)CCCC2)N1C[C@H]2CCCN[C@H]2C1` [Compound I-062], the Ki on human HRH4 came out at 260 nM. This Ki and that of the compound before are within 1.5-fold of each other.
`O=C(c1cc2c([nH]1)CCC(F)(F)C2O)N1C[C@H]2CCCN[C@H]2C1` (stereo partly shown) [Compound I-064]: the Ki on human HRH4 is 180 nM.
On the same count and under the same terms, in the case of `CN1CCN(C(=O)c2cc3c([nH]2)CC=C(F)C3)CC1` [Compound I-065] it was 35 nM.
Consider `CN1CCN(C(=O)c2cc3c([nH]2)CCC(Cl)(Cl)C3O)CC1` (stereo not shown) [Compound I-066], for which the Ki at human HRH4 turned out to be 350 nM.
At human HRH4, `COC1c2cc(C(=O)N3CCNCC3)[nH]c2CCC1(Cl)Cl` (stereo not shown) [Compound I-067] had a Ki of 480 nM. This Ki and that of the compound before are within 1.5-fold of each other.
On to `O=C(c1cc2c([nH]1)CCC(F)(F)C2O)N1CCN2CCCC2C1` (stereo not shown) [Compound I-068], for which the affinity on human HRH4, expressed as Ki, was 520 nM. The Ki values of the last two compounds are within 1.5-fold of each other.
Turning to `COC1c2cc(C(=O)N3CCN(C)CC3)[nH]c2CCC1(Cl)Cl` (stereo not shown) [Compound I-069], the Ki at human HRH4 was found to be 220 nM.
In the case of `CCOC1c2cc(C(=O)N3C[C@H]4CCCN[C@H]4C3)[nH]c2CCC1(F)F` (stereo partly shown) [Compound I-070], at human HRH4, the inhibitory constant (Ki) was 270 nM. The Ki values of the last two compounds are within 1.5-fold of each other.
Regarding `CN1CCN(C(=O)c2cc3c([nH]2)CC(O)CC3)CC1` (stereo not shown) [Compound I-075], the Ki on human HRH4 came out at 20 nM.
`CN1CCN(C(=O)c2cc3c([nH]2)CC(O)C(Cl)(Cl)C3)CC1` (stereo not shown) [Compound I-076] came in with a Ki at human HRH4 of 25 nM. The Ki values of the last two compounds are within 1.5-fold of each other.

These data come from patent US20120277238A1, “PHARMACEUTICAL COMPOSITION CONTAINING FUSED HETERO-RING DERIVATIVE” (Shionogi & Co., Ltd, priority 2009, published 2012).
